In patent publication US20230174523A1, “BENZENESULFONAMIDE DERIVATIVES AS TRAP1 MODULATORS AND USES THEREOF” (Amathus Therapeutics, Inc., priority 2020, published 2023):

Target: T1, TRAP1 enzyme (Homo sapiens, UniProt Q12931)
T1 sequence (Q12931 60-704): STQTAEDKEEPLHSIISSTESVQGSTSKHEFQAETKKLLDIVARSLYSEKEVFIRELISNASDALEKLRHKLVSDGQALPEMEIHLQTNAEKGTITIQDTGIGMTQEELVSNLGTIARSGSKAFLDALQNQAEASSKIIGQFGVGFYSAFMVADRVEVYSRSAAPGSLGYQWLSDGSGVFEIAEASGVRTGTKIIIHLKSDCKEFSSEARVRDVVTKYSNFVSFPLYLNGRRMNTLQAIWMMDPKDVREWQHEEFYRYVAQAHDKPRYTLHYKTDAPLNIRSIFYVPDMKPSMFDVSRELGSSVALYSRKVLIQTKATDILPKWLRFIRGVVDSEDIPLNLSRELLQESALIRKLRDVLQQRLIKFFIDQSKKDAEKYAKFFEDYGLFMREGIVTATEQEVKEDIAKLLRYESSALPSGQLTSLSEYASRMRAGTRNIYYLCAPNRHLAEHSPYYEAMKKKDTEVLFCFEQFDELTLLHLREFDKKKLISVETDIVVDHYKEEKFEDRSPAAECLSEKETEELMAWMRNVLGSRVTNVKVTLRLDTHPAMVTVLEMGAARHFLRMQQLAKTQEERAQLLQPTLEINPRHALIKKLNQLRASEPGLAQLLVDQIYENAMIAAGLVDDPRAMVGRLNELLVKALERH
Test: Malachite green phosphate assay of TRAP1 ATPase activity
Assay type: biochemical
Conditions: for EC50: TRAP1 ATPase activation, 150 nM Trap1, 20 μM ATP, geometric mean, read-out: Malachite Green Fluor DRC: GeoMean EC50; for Emax: read-out: Malachite Green Fluor DRC: Mean Emax
Protocol: The Potency of test compounds to modulate the ATPase activity of TRAP1 enzyme was evaluated using malachite green phosphatase assay. The assay is based on quantification of the green complex formed between Malachite Green, molybdate and inorganic phosphate generated in the phosphatase reaction. Assays were performed using a Malachite Green assay kit. All the assays were carried out in a 96-well transparent plate. The buffer used was 50 mM HEPES (pH 7.5), 20 mM KCl, 4 mM MgCl2 and 0.05% BSA. 150 nM Trap1 enzyme was incubated with various concentrations of the test compound (0.78 μM-100 μM) at 37° C. for 30 mins. 20 μM ATP was added to each well (except blank wells) to start the reaction and the plate was then incubated at 37° C. for 180 mins. 10 μl of the reaction volume of each sample was then transferred to a white 384-well proxiplate in quadruplets. 2.5 μl of Malachite Green reagent was added to all the wells and the plate was equilibrated for 15 mins. The reaction was stopped by adding 12% H2SO4 and the plate was read for fluorescence at 620 nm (λex=573 nm). The amount of phosphate released was estimated from a phosphate standard curve generated at the same experimental conditions. Emax (Maximal percent activation) and EC50 (concentration of test compound for half maximal activation) were estimated by fitting the dose response data to a sigmoidal curve fitting equation using Graphpad Prism software V.7.0.

SMILES	EC50	Emax
COc1ccc(NC(=O)c2cnc[nH]2)cc1S(=O)(=O)N(CCOCCOCCBr)c1ccc(Br)cc1 [Compound 286]	< 10 µM	160 to 199%
COc1ccc(NC(=O)c2cnc[nH]2)cc1S(=O)(=O)N(CCOCCOCC[P+](c1ccccc1)(c1ccccc1)c1ccccc1)c1ccc(Br)cc1 [Compound 296]	< 10 µM	200 to 300%
COc1ccc(NC(=O)c2ocnc2C)cc1S(=O)(=O)Nc1ccc(Br)cc1 [Compound 299]	20 to 100 µM	160 to 199%
O=C(Nc1cccc(S(=O)(=O)Nc2ccc(Br)cc2)c1)c1ncco1 [Compound 302]	20 to 100 µM	160 to 199%
CCCN(c1ccc(Br)cc1)S(=O)(=O)c1cccc(NC(=O)c2ncco2)c1 [Compound 303]	10 to 20 µM	160 to 199%
COc1ccc(NC(=O)c2nccs2)cc1S(=O)(=O)Nc1ccc(Br)cc1 [Compound 304]	10 to 20 µM	200 to 300%
COc1ccc(NC(=O)c2ncco2)cc1S(=O)(=O)Nc1ccc(C)cc1 [Compound 307]	20 to 100 µM	160 to 199%
COc1ccc(NC(=O)c2ncco2)cc1S(=O)(=O)N1CCOCC1 [Compound 309]	20 to 100 µM	123 to 159%
O=C(Nc1ccc(F)c(S(=O)(=O)Nc2ccc(F)cc2)c1)c1ncco1 [Compound 314]	20 to 100 µM	123 to 159%
COc1ccc(NC(=O)c2oc(C(F)(F)F)nc2C)cc1S(=O)(=O)Nc1ccc(Br)cc1 [Compound 315]	10 to 20 µM	160 to 199%
CCc1ccc(NC(=O)c2ncco2)cc1S(=O)(=O)Nc1ccc(C(F)(F)F)cc1 [Compound 316]	20 to 100 µM	200 to 300%
CCOC(=O)Cc1ccc(NC(=O)c2cnccc2C)cc1S(=O)(=O)Nc1ccc(C)cc1 [Compound 317]	10 to 20 µM	160 to 199%
Cc1ccc2c(c1)OCCN2S(=O)(=O)c1cccc(NC(=O)c2ncco2)c1 [Compound 324]	20 to 100 µM	200 to 300%
CCOC(=O)Cc1ccc(NC(=O)c2ncco2)cc1S(=O)(=O)Nc1ccc(Br)cc1 [Compound 332]	20 to 100 µM	200 to 300%
O=C(Nc1ccc(CCO)c(S(=O)(=O)Nc2ccc(Br)cc2)c1)c1ncco1 [Compound 333, N-(3-(N-(4-bromophenyl)sulfamoyl)-4-(2-hydroxyethyl)phenyl) oxazole-2-carboxamide]	20 to 100 µM	160 to 199%
CN(c1ccc(Br)cc1)S(=O)(=O)c1cc(NC(=O)c2cnc[nH]2)ccc1OCCCCCCO [Compound 342]	20 to 100 µM	200 to 300%
COc1ccc(NC(=O)c2nccs2)cc1S(=O)(=O)Nc1ccc(F)cc1 [Compound 345]	20 to 100 µM	200 to 300%
COc1ccc(NC(=O)c2cnc(C(F)(F)F)[nH]2)cc1S(=O)(=O)Nc1ccc(F)cc1C [Compound 348]	20 to 100 µM	200 to 300%
COc1ccc(NC(=O)c2nccs2)cc1S(=O)(=O)Nc1ccc(Cl)cc1 [Compound 349]	20 to 100 µM	200 to 300%
COc1ccc(NC(=O)c2cnc(C(F)(F)F)[nH]2)cc1S(=O)(=O)Nc1ccc(-c2ccccc2)cc1 [Compound 353]	20 to 100 µM	200 to 300%
NCCCCCCOc1ccc(NC(=O)c2cnc[nH]2)cc1S(=O)(=O)Nc1ccc(Br)cc1 [Compound 356, N-(4-((6-aminohexyl)oxy)-3-(N-(4-bromophenyl)sulfamoyl)phenyl)-1H-imidazole-4-carboxamide]	20 to 100 µM	200 to 300%
COc1ccc(NC(=O)c2cnc(C(F)(F)F)[nH]2)cc1S(=O)(=O)Nc1ccc(C(C)(C)C)cc1 [Compound 360]	20 to 100 µM	200 to 300%
CN(c1ccc(Br)cc1)S(=O)(=O)c1cc(NC(=O)c2cnc[nH]2)ccc1OCCCCCC[P+](c1ccccc1)(c1ccccc1)c1ccccc1 [Compound 363]	< 10 µM	> 300%

SMILES	EC50	Emax
COc1ccc(NC(=O)c2cn(C)c(C(F)(F)F)n2)cc1S(=O)(=O)Nc1ccc(Br)cc1 [Compound 364]	20 to 100 µM	160 to 199%
O=C(Nc1cccc(S(=O)(=O)N2CCOc3cc(Cl)ccc32)c1)c1ncco1 [Compound 367]	20 to 100 µM	200 to 300%
COc1ccc(NC(=O)c2cnc(C(F)(F)F)[nH]2)cc1S(=O)(=O)Nc1cccc(C(C)(C)C)c1 [Compound 368]	20 to 100 µM	200 to 300%
COc1ccc(NC(=O)c2ncc(-c3ccccc3)o2)cc1S(=O)(=O)Nc1ccc(Cl)cc1 [Compound 369]	< 10 µM	160 to 199%
COc1ccc(NC(=O)c2nc(C(F)(F)F)cs2)cc1S(=O)(=O)Nc1ccc(Br)cc1 [Compound 370, N-(3-(N-(4-bromophenyl)sulfamoyl)-4-methoxyphenyl)-4-(trifluoromethyl) thiazole-2-carboxamide]	20 to 100 µM	200 to 300%
O=C(Nc1cccc(S(=O)(=O)N2CCOc3ccccc32)c1)c1ncco1 [Compound 372]	20 to 100 µM	160 to 199%
O=C(Nc1cccc(S(=O)(=O)N2CCOc3cc(F)ccc32)c1)c1ncco1 [Compound 377]	20 to 100 µM	160 to 199%
COc1ccc(NC(=O)c2cnc(-c3ccccc3)[nH]2)cc1S(=O)(=O)Nc1ccc(N=[N+]=[N-])cc1 [Compound 380, N-(3-(N-(4-azidophenyl)sulfamoyl)-4-methoxyphenyl)-2-phenyl-1H-imidazole-5-carboxamide]	< 10 µM	160 to 199%
COc1ccc(NC(=O)c2cnc[nH]2)cc1S(=O)(=O)Nc1ccc(C(C2N=N2)C(F)(F)F)cc1 (centres unmarked) [Compound 398]	20 to 100 µM	123 to 159%
COc1ccc(NC(=O)c2cnc(-c3ccccc3)[nH]2)cc1S(=O)(=O)Nc1ccc(Cl)cc1 [Compound 404]	< 10 µM	160 to 199%
Cc1ccc2c(c1)CCN2S(=O)(=O)c1cccc(NC(=O)c2ocnc2C)c1 [Compound 407]	20 to 100 µM	200 to 300%
COc1ccc(NC(=O)c2cnc(-c3ccc(Cl)cc3)[nH]2)cc1S(=O)(=O)Nc1ccc(Br)cc1 [Compound 415]	< 10 µM	123 to 159%
COc1ccc(-c2ncc(C(=O)Nc3ccc(OC)c(S(=O)(=O)Nc4ccc(Br)cc4)c3)[nH]2)cc1 [Compound 417]	< 10 µM	123 to 159%
COc1ccc(NC(=O)c2ncc(-c3ccccc3)o2)cc1S(=O)(=O)Nc1c(C)cccc1C [Compound 423]	< 10 µM	160 to 199%
COc1ccc(NC(=O)c2nnc(-c3ccccc3)o2)cc1S(=O)(=O)Nc1ccc(Cl)cc1 [Compound 424]	< 10 µM	123 to 159%
Cc1ncoc1C(=O)Nc1cccc(S(=O)(=O)N2CCCc3cc(Cl)ccc32)c1 [Compound 429]	10 to 20 µM	200 to 300%
COc1ccc(NC(=O)c2cnc(C(F)(F)F)[nH]2)cc1S(=O)(=O)N(CCCCN1CCOCC1)c1ccc(Br)cc1 [Compound 430, N-(3-(N-(4-bromophenyl)-N-(4-morpholinobutyl)sulfamoyl)-4-methoxyphenyl)-2-(trifluoromethyl)-1H-imidazole-5-carboxamide]	20 to 100 µM	200 to 300%
COc1ccc(NC(=O)c2cnc(C(F)(F)F)[nH]2)cc1S(=O)(=O)N(CCCCCO)c1ccc(Br)cc1 [Compound 431, N-(3-(N-(4-bromophenyl)-N-(5-hydroxypentyl)sulfamoyl)-4-methoxyphenyl)-2-(trifluoromethyl)-1H-imidazole-5-carboxamide]	20 to 100 µM	> 300%
COc1ccc(NC(=O)c2cnc(C(F)(F)F)[nH]2)cc1S(=O)(=O)N(CCCCCN1CCOCC1)c1ccc(Br)cc1 [Compound 433]	10 to 20 µM	123 to 159%
Cc1cccc(C)c1NS(=O)(=O)c1cc(NC(=O)c2cnc(-c3ccccc3)[nH]2)ccc1F [Compound 436]	< 10 µM	160 to 199%
COc1ccc(NC(=O)c2cnc(C(F)(F)F)[nH]2)cc1S(=O)(=O)N(CCCCN1CCCC1)c1ccc(Br)cc1 [Compound 437]	20 to 100 µM	160 to 199%
COc1ccc(NC(=O)c2cnc(C(F)(F)F)[nH]2)cc1S(=O)(=O)N(CCCCCN1CCCC1)c1ccc(Br)cc1 [Compound 439]	20 to 100 µM	160 to 199%
COc1ccc(NC(=O)c2ncc(-c3ccccc3)s2)cc1S(=O)(=O)Nc1c(C)cccc1C [Compound 449]	10 to 20 µM	123 to 159%
